pIC50, pKi: −log10 of the molar value.
Columns and labels:
[1] = target: T1, Alpha-2C adrenergic receptor (Homo sapiens, UniProt P18825); experiment: DRUGMATRIX: Adrenergic Alpha-2C radioligand binding (ligand: [3H] MK-912); assay type: cell membranes, Sf9, Membrane; settings: for pIC50: read-out: IC50; for pKi: read-out: Ki
T1 sequence (P18825 whole entry): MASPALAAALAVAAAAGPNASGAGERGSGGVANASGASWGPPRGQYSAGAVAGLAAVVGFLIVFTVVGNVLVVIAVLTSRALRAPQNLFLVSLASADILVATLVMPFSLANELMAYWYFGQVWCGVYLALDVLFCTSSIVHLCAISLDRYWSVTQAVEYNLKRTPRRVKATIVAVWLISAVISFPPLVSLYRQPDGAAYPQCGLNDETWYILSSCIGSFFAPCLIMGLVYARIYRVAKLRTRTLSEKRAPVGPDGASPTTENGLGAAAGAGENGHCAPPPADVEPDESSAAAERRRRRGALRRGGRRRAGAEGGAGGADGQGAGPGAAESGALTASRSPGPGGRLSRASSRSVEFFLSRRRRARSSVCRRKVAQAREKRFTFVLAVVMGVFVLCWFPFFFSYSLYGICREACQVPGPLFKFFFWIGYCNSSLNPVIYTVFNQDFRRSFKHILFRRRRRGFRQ

[2] = target: Beta-2 adrenergic receptor (Homo sapiens, UniProt P07550); experiment: DRUGMATRIX: Adrenergic beta2 radioligand binding (ligand: [3H] CGP-12177); assay type: cell membranes, CHO, Membrane; settings: Not Active = under 50% inhibition at 10 µM; for IC50 / Ki: cho
[3] = target: 5-hydroxytryptamine receptor 6 (Homo sapiens, UniProt P50406); assay type: cell membranes, HeLa, Membrane; settings: hela; also: in other assays of this panel Not Active means under 50% inhibition at 10 µM
Chain of 5-hydroxytryptamine receptor 6 (P50406 whole entry): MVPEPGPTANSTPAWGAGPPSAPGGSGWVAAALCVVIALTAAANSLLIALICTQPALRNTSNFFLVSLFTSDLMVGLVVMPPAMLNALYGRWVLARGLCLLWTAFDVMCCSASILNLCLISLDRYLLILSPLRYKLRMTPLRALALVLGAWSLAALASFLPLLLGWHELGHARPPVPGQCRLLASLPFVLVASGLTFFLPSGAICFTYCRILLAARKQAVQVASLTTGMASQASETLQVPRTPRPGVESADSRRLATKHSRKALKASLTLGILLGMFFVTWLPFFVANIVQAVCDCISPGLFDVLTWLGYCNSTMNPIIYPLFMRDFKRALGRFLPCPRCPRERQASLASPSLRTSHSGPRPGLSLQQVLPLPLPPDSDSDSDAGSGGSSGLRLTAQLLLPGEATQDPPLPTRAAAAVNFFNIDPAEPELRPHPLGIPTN

[4] = DRUGMATRIX: Phorbol Ester radioligand binding (ligand: [3H] PDBu); assay type: cell membranes, Mus musculus, ICR, Brain, Membrane; settings: Not Active = under 50% inhibition at 10 µM
[5] = target: cGMP-specific 3',5'-cyclic phosphodiesterase (Homo sapiens, UniProt O76074); experiment: DRUGMATRIX: Phosphodiesterase PDE5 enzyme inhibition (substrate: [3H]cGMP + cGMP); assay type: tissue-based; settings: platelet; Not Active = under 50% inhibition at 10 µM

| Compound | IC50 ([1]; sf9) | IC50 [2] | IC50 [3] | IC50 [4] | Ki [4] | IC50 [5] | pIC50 [1] | pKi [1] | pIC50 ([2]; read-out: IC50) | pKi ([2]; read-out: Ki) | Ki ([1]; sf9) | Ki [2] | Ki [3] | Ki [5] | pIC50 ([1]; sf9) | pKi ([1]; sf9) | pIC50 ([3]; read-out: IC50) | pKi ([3]; read-out: Ki) |
| --- | --- | --- | --- | --- | --- | --- | --- | --- | --- | --- | --- | --- | --- | --- | --- | --- | --- | --- |
| C#CCN(C)[C@H](C)Cc1ccccc1 [SELEGILINE] | Not Active | Not Active | Not Active | Not Active | Not Active | Not Active |  |  |  |  |  |  |  |  |  |  |  |  |
| CO[C@H]1C[C@@H]2CC[C@@H](C)[C@@](O)(O2)C(=O)C(=O)N2CCCC[C@H]2C(=O)O[C@H]([C@H](C)C[C@@H]2CC[C@@H](O)[C@H](OC)C2)CC(=O)[C@H](C)/C=C(\C)[C@@H](O)[C@@H](OC)C(=O)[C@H](C)C[C@H](C)/C=C/C=C/C=C/1C [SIROLIMUS] | Not Active | Not Active | Not Active | Not Active | Not Active | Not Active |  |  |  |  |  |  |  |  |  |  |  |  |
| CN[C@@H]1[C@H](O)[C@H](NC)[C@H]2O[C@@]3(O)C(=O)C[C@@H](C)O[C@H]3O[C@@H]2[C@H]1O [SPECTINOMYCIN] | Not Active | Not Active | Not Active | Not Active | Not Active | Not Active |  |  |  |  |  |  |  |  |  |  |  |  |
| Nc1ccc(S(=O)(=O)Nc2ncccn2)cc1 [SULFADIAZINE] | Not Active | Not Active | Not Active | Not Active | Not Active | Not Active |  |  |  |  |  |  |  |  |  |  |  |  |
| COc1ncnc(NS(=O)(=O)c2ccc(N)cc2)c1OC [SULFADOXINE] | Not Active | Not Active | Not Active | Not Active | Not Active | Not Active |  |  |  |  |  |  |  |  |  |  |  |  |
| Nc1ccc(S(=O)(=O)Nc2nccs2)cc1 [SULFATHIAZOLE] | Not Active | Not Active | Not Active | Not Active | Not Active | Not Active |  |  |  |  |  |  |  |  |  |  |  |  |
| C[C@]12CC[C@H]3[C@@H](CCC4=CC(=O)CC[C@@]43C)[C@@H]1CC[C@@H]2O [TESTOSTERONE] | Not Active | Not Active | Not Active | Not Active | Not Active | Not Active |  |  |  |  |  |  |  |  |  |  |  |  |
| CC(C)(C)NC[C@H](O)COc1nsnc1N1CCOCC1 [TIMOLOL] | Not Active |  | Not Active | Not Active | Not Active | Not Active |  |  |  |  |  |  |  |  |  |  |  |  |
| CCS(=O)(=O)CCn1c([N+](=O)[O-])cnc1C [TINIDAZOLE] | Not Active | Not Active | Not Active | Not Active | Not Active | Not Active |  |  |  |  |  |  |  |  |  |  |  |  |
| C[C@@H]1C[C@H]2[C@@H]3CCC4=CC(=O)C=C[C@]4(C)C3=CC[C@]2(C)[C@H]1C(=O)CN1CCN(c2cc(N3CCCC3)nc(N3CCCC3)n2)CC1 [TIRILAZAD] |  |  | Not Active | Not Active | Not Active | Not Active | 5.10 | 5.94 | 4.64 | 4.81 |  |  |  |  |  |  |  |  |
| NC[C@H]1O[C@H](O[C@H]2[C@H](O)[C@@H](O[C@H]3O[C@H](CO)[C@@H](O)[C@H](N)[C@H]3O)[C@H](N)C[C@@H]2N)[C@H](N)C[C@@H]1O [TOBRAMYCIN] | Not Active | Not Active | Not Active | Not Active | Not Active | Not Active |  |  |  |  |  |  |  |  |  |  |  |  |
| O=c1n(CCCN2CCN(c3cccc(Cl)c3)CC2)nc2ccccn12 [TRAZODONE] |  | Not Active | Not Active |  |  | Not Active |  |  |  |  |  |  |  |  |  |  |  |  |
| O=C(O)C(Cl)(Cl)Cl [TRICHLOROACETIC ACID] | Not Active | Not Active | Not Active | Not Active | Not Active | Not Active |  |  |  |  |  |  |  |  |  |  |  |  |
| COc1ccc(CN2CCNCC2)c(OC)c1OC [TRIMETAZIDINE] | Not Active | Not Active | Not Active | Not Active | Not Active | Not Active |  |  |  |  |  |  |  |  |  |  |  |  |
| CC(=O)O[C@H]1C[C@@H]2CC[C@@H]3[C@H](CC[C@@]4(C)[C@H]3C[C@H]([N+]3(C)CCCCC3)[C@@H]4OC(C)=O)[C@@]2(C)C[C@@H]1N1CCCCC1.[Br-] [VECURONIUM BROMIDE] | Not Active | Not Active | Not Active | Not Active | Not Active | Not Active |  |  |  |  |  |  |  |  |  |  |  |  |
| COc1cc(C(=O)NS(=O)(=O)c2ccccc2C)ccc1Cc1cn(C)c2ccc(NC(=O)OC3CCCC3)cc12 [ZAFIRLUKAST] | Not Active | Not Active | Not Active | Not Active | Not Active | Not Active |  |  |  |  |  |  |  |  |  |  |  |  |
| Cc1cn([C@H]2C[C@H](N=[N+]=[N-])[C@@H](CO)O2)c(=O)[nH]c1=O [ZIDOVUDINE] | Not Active | Not Active | Not Active | Not Active | Not Active | Not Active |  |  |  |  |  |  |  |  |  |  |  |  |
| STANNOUS FLUORIDE | Not Active | Not Active | Not Active | Not Active | Not Active | Not Active |  |  |  |  | Not Active | Not Active | Not Active | Not Active |  |  |  |  |
| THIMEROSAL |  | Not Active |  | Not Active | Not Active | Not Active |  |  |  |  |  | Not Active |  | Not Active | 5.30 | 6.14 | 5.23 | 5.56 |

Reference: ChEMBL document CHEMBL1909046, “DrugMatrix in vitro pharmacology data”
